Laboratory results taken from US11529363B2, “Methods of treating cancer in pediatric patients” (ARIAD Pharmaceuticals, Inc., priority 2018, dated 2022).

Assays:
[1] = tested on: secondary ALK mutants of EML4-ALK; details: at relevant levels of exposure achieved in patients; cited from earlier work
ALK+ NSCLC = experiment: phase 2 study AP26113-13-201 (ALTA trial) in adult patients with ALK+ NSCLC refractory to crizotinib; type: in vivo, human
Method: In the pivotal phase 2 study in adults with ALK+ NSCLC, 2 dose regimens were evaluated: (1) 90 mg QD; (2) 90 mg QD in Week 1 followed by escalation to 180 mg QD for those patients tolerating the 7-day 90 mg QD lead in. […] To mitigate the risk for EOPEs in pediatric patients, the doses of brigatinib selected for Week 1 of treatment are informed by adult clinical experience and designed to achieve systemic exposures not exceeding those at the 90 mg daily dose in adults.

ALK = ALK (Homo sapiens, UniProt Q9UM73); details: in vitro studies; cited from earlier work
Chain of ALK (Q9UM73 19-1620): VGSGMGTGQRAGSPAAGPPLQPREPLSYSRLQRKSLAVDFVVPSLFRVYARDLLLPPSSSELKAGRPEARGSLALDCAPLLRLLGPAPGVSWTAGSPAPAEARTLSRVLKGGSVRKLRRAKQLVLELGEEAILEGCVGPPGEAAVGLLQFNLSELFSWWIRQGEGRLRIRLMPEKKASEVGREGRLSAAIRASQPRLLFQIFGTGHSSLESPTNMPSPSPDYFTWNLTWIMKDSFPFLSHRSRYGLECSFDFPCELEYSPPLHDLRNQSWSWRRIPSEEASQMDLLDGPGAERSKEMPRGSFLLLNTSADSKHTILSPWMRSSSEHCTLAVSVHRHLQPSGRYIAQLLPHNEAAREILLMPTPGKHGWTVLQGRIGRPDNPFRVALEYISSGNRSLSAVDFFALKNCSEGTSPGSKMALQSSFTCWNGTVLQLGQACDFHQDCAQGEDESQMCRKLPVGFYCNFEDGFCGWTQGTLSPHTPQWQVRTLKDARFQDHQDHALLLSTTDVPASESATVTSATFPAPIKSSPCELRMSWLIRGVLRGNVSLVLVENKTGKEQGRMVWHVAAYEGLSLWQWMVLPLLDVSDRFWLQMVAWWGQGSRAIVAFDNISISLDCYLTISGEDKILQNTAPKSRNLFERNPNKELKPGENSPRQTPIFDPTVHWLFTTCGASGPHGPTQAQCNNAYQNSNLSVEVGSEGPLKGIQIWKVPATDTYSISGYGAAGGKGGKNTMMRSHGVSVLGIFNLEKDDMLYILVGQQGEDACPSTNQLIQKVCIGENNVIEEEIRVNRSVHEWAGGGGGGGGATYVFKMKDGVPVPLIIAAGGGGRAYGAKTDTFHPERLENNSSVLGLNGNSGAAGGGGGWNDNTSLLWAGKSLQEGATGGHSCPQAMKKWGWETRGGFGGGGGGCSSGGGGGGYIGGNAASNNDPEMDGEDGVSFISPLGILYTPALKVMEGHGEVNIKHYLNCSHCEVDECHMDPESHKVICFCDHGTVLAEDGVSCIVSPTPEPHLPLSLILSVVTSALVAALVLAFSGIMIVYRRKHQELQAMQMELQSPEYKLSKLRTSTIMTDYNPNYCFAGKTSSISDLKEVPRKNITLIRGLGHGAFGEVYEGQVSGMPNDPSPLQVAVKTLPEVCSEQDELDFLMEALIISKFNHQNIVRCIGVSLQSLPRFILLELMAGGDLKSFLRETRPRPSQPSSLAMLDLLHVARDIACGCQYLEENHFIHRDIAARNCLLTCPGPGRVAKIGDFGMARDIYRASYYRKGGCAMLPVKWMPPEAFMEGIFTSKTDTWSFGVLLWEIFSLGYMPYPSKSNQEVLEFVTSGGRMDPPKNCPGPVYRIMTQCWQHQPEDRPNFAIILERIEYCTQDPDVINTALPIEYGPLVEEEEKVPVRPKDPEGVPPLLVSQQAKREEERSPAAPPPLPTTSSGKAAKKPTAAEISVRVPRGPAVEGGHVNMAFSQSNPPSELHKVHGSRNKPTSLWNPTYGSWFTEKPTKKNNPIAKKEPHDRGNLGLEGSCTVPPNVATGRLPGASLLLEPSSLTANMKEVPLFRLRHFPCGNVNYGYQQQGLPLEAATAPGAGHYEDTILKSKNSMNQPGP

[2] = cross-study comparison of brigatinib exposure, oral solution (AP26113-13-104) vs tablet (AP26113-16-110); type: in vivo, human
[3] = first-in-human Study AP26113-11-101, tolerated dose in adults
Method: One additional dose level is planned if the 40 mg/m^2 QD→80 mg/m^2 QD dose is tolerated.

[4] = pediatric, 280 mg/m^2; cited from earlier work
[5] = 90→180 mg QD, adult ALK+ NSCLC refractory to crizotinib

COc1cc(N2CCC(N3CCN(C)CC3)CC2)ccc1Nc1ncc(Cl)c(Nc2ccccc2P(C)(C)=O)n1 [brigatinib, 5-chloro-N4-[2-(dimethylphosphoryl)phenyl]-N2-{2-methoxy-4-[4-(4-methylpiperazin-1-yl)piperidin-1-yl]phenyl}pyrimidine-2,4-diamine]
activity against 17 secondary ALK mutants of EML4-ALK [1]: maintain substantial activity against all 17 secondary ALK mutants | duration of response (DOR) (ALK+ NSCLC; [5]): 13.8 months | investigator-assessed confirmed ORR (ALK+ NSCLC; [5]): 55.5% | progression-free survival (PFS) (ALK+ NSCLC; [5]): 15.6 months | PFS at 180 mg QD versus 90 mg QD (ALK+ NSCLC; pivotal phase 2 study, adults with ALK+ NSCLC): longer PFS at 180 mg QD | ALK inhibitor potency compared with crizotinib, ceritinib and alectinib (ALK): more potent ALK inhibitor than crizotinib, ceritinib, and alectinib | relative bioavailability of oral solution, AUC higher in reference to the tablet ([2]; oral solution vs tablet, adults): approximately 42% | oral solution/tablet AUC ratio ([2]; relative bioavailability factor): 1.42 | highest acceptably tolerated dose [3]: 240 mg QD

C[C@@H](Oc1cc(-c2cnn(C3CCNCC3)c2)cnc1N)c1c(Cl)ccc(F)c1Cl [crizotinib]
systemic exposure at MTD/RP2D higher than adult clinical exposures at 250 mg BID [4]: ~50%
